Measured values as given in patent publication US9949479B2 (priority 2015, dated 2018).
Where “and” joins values, the source holds several entries; their conditions need not be identical. Equal entries are not always repeated. Where two headings read alike, the source gives them in different places.

How the values were obtained:
powdery mildew [1] = format: in vivo
wheat scab [2] = format: in vivo, Fusarium spp.
powdery mildew [3] = format: in vivo; remark: listed apart in the source
powdery mildew [4] = format: in vivo; remark: listed apart in the source
leaf blight [5] = format: in vivo
[6] = format: in vivo, wheat; settings: vs control; dose as in E145
wheat scab [7] = format: in vivo, Fusarium spp.; remark: listed apart in the source
Fusarium asiaticum = assay: microbe, parasite or virus in culture; format: cell-based
wheat scab [8] = format: in vivo, Fusarium spp.; remark: listed apart in the source
wheat scab [9] = format: in vivo, Fusarium spp.; remark: listed apart in the source
wheat scab [10] = format: in vivo, Fusarium spp.; remark: listed apart in the source
[11] = test system: DON toxin synthesis capability of thalli; design: species or system Fusarium spp.; settings: in vivo
[12] = design: species or system wheat; settings: in vivo
leaf blight [13] = format: in vivo; settings: dose as in E162
rust = format: in vivo; settings: dose as in E162
powdery mildew [14] = format: in vivo; settings: dose as in E162
leaf blight [15] = format: in vivo; settings: dose as in E145
Tri5 gene = format: cell-based, Fusarium asiaticum
[16] = Serial 6: preparation 100, jinggangmycin 0, metconazole 20 g ai./mu
[17] = Serial 21: metconazole 20 g ai./mu alone
[18] = Serial 22: metconazole 18 g ai./mu alone
[19] = Serial 23: metconazole 16 g ai./mu alone
[20] = Serial 24: metconazole 10 g ai./mu alone
[21] = Serial 25: metconazole 9 g ai./mu alone
[22] = Serial 26: metconazole 8 g ai./mu alone
[23] = Serial 27: metconazole 6 g ai./mu alone
[24] = Serial 28: metconazole 3 g ai./mu alone
[25] = Serial 10: preparation 30 g/mu, metconazole 6 g ai./mu alone
[26] = Serial 11: preparation 22.5 g/mu, metconazole 4.5 g ai./mu alone
[27] = Serial 12: preparation 15 g/mu, metconazole 3 g ai./mu alone
[28] = Fusarium asiaticum, read-out: Growth Inhibition Rate F.a
[29] = Serial 5: preparation 100, jinggangmycin 20, metconazole 0 g ai./mu
[30] = Serial 11: jinggangmycin 36 g ai./mu alone
[31] = Serial 12: jinggangmycin 18 g ai./mu alone
[32] = Serial 13: jinggangmycin 15 g ai./mu alone
[33] = Serial 14: jinggangmycin 7.5 g ai./mu alone
[34] = Serial 15: jinggangmycin 5 g ai./mu alone
[35] = Serial 16: jinggangmycin 2.5 g ai./mu alone
[36] = Serial 17: jinggangmycin 3 g ai./mu alone
[37] = Serial 18: jinggangmycin 1.5 g ai./mu alone
[38] = Serial 19: jinggangmycin 1 g ai./mu alone
[39] = Serial 20: jinggangmycin 0.5 g ai./mu alone
[40] = Serial 5: preparation 75 g/mu, jinggangmycin 15 g ai./mu alone
[41] = Serial 6: preparation 60 g/mu, jinggangmycin 12 g ai./mu alone
[42] = Serial 7: preparation 45 g/mu, jinggangmycin 9 g ai./mu alone
[43] = Serial 8: preparation 30 g/mu, jinggangmycin 6 g ai./mu alone

CC1(C)CCC(Cc2ccc(Cl)cc2)C1(O)Cn1cncn1 (centres unmarked) [Metconazole]
Disease Index Prevention Effect % Powdery Mildew (powdery mildew [1]; [16]): 78.2%
Disease Index Prevention Effect % Head Blight (wheat scab [2]; Serial 8: preparation 50 g/mu, metconazole 10 g ai./mu alone): 75.6%
Disease Index Prevention Effect % Head Blight (wheat scab [2]; Serial 10: preparation 15 g/mu, metconazole 3 g ai./mu alone): 39.1%
Disease Index Prevention Effect % Powdery Mildew (powdery mildew [3]; [17]): 80.1%
Disease Index Prevention Effect % Powdery Mildew (powdery mildew [3]; [18]): 74.6%
Disease Index Prevention Effect % Powdery Mildew (powdery mildew [3]; [19]): 71.4%
Disease Index Prevention Effect % Powdery Mildew (powdery mildew [3]; [20]): 63.4%
Disease Index Prevention Effect % Powdery Mildew (powdery mildew [3]; [21]): 60.8%
Disease Index Prevention Effect % Powdery Mildew (powdery mildew [3]; [22]): 58.6%
Disease Index Prevention Effect % Powdery Mildew (powdery mildew [3]; [23]): 51.8%
Disease Index Prevention Effect % Powdery Mildew (powdery mildew [3]; [24]): 26.4%
Disease Index Prevention Effect % Powdery Mildew (powdery mildew [4]; [25]): 60.6%
Disease Index Prevention Effect % Powdery Mildew (powdery mildew [4]; [26]): 58.6%
Disease Index Prevention Effect % Powdery Mildew (powdery mildew [4]; [27]): 45.1%
Disease Index Prevention Effect % Leaf Blight (leaf blight [5]; [17]): 80.5%
Disease Index Prevention Effect % Leaf Blight (leaf blight [5]; [18]): 80.2%
Disease Index Prevention Effect % Leaf Blight (leaf blight [5]; [19]): 79.6%
Disease Index Prevention Effect % Leaf Blight (leaf blight [5]; [20]): 75.3%
Disease Index Prevention Effect % Leaf Blight (leaf blight [5]; [21]): 75.0%
Disease Index Prevention Effect % Leaf Blight (leaf blight [5]; [22]): 74.3%
Disease Index Prevention Effect % Leaf Blight (leaf blight [5]; [23]): 70.2%
Disease Index Prevention Effect % Leaf Blight (leaf blight [5]; [24]): 28.1%
DON Reduction Percentage (%) [6]: 88.4% and 79.9% and 71.4% and 66.6%
Disease Index Prevention Effect % Head Blight (wheat scab [7]; [16]): 82.4%
ED50 (Fusarium asiaticum): 0.114 µg/mL and 0.112 µg/mL and 0.116 µg/mL
inhibition at 0.0625 µg/mL (Fusarium asiaticum; [28]): 30.7%
inhibition at 0.125 µg/mL (Fusarium asiaticum; [28]): 58.6%
inhibition at 0.25 µg/mL (Fusarium asiaticum; [28]): 75.6%
inhibition at 0.5 µg/mL (Fusarium asiaticum; [28]): 89.2%
inhibition at 1 µg/mL (Fusarium asiaticum; [28]): 95.9%
Theoretical Prevention Effect of Mixed Agent on Head Blight (wheat scab [8]; Abbott method, dose as in E145): 65.8 and 61.3 and 48.4 and 39.6
Disease Index Prevention Effect % Head Blight (wheat scab [8]; sprayed twice, g ai. agent/mu, Jinggangmycin+Metconazole by row: r16 1+15, r17 3+10, r18 5+5, r19 5+10, r20 5+15, r21 10+3, r22 10+10, r23 10+15, r24 50+3, r25 50+10, r26 50+15, r27 100+5, r28 100+10, Jinggangmycin alone r29 100, r30 50, r31 10, r32 5, r33 3, r34 1, Metconazole alone r35 15, r36 10, r37 5, r38 3, r39 Carbendazim 40): 65.8% and 61.3% and 48.4% and 39.6%
Theoretical Prevention Effect on Head Blight % (wheat scab [9]; Abbott method, dose as in E162): 66.7% and 61.8% and 40.9% and 33.6%
Disease Index Prevention Effect % Head Blight (wheat scab [9]; tank mixture sprayed twice, g ai. agent/mu, Jinggangmycin+Metconazole by row: r11 3+15, r12 5+10, r13 5+5, r14 10+5, r15 50+3, r16 100+3, Jinggangmycin alone r17 100, r18 50, r19 10, r20 5, r21 3, Metconazole alone r22 15, r23 10, r24 5, r25 3, r26 Polyketone 57): 66.7% and 61.8% and 50.9% and 33.6%
Disease Index Prevention Effect % Head Blight (wheat scab [10]; [25]): 52.3%
Disease Index Prevention Effect % Head Blight (wheat scab [10]; [26]): 49.6%
Disease Index Prevention Effect % Head Blight (wheat scab [10]; [27]): 28.6%
DON Synthesis Capability [11]: 20.16 and 19.80 and 19.96 and 19.54 and 19.20 and 19.38
Thousand Kernel Weight [12]: 43.4 g and 42.8 g and 42.4 g and 40.4 g

OCC1=C[C@H](NC2C[C@H](CO)[C@@H](OC3O[C@H](CO)[C@@H](O)[C@H](O)[C@H]3O)[C@H](O)[C@H]2O)[C@H](O)[C@@H](O)[C@@H]1O (some centres unmarked) [Jinggangmycin A, jinggangmycin A]
Disease Index Prevention Effect % Powdery Mildew (powdery mildew [1]; [29]): 10.6%
Disease Index Prevention Effect % Leaf Blight (leaf blight [13]): 8.5% and 7.9% and 0%
Disease Index Prevention Effect % Head Blight (wheat scab [2]; Serial 5: preparation 50 g/mu, jinggangmycin 10 g ai./mu alone): 32.4%
Disease Index Prevention Effect % Head Blight (wheat scab [2]; Serial 6: preparation 37.5 g/mu, jinggangmycin 7.5 g ai./mu alone): 24.2%
Disease Index Prevention Effect % Head Blight (wheat scab [2]; Serial 7: preparation 15 g/mu, jinggangmycin 3 g ai./mu alone): 0%
Disease Index Prevention Effect % Powdery Mildew (powdery mildew [3]; [30]): 8.5%
Disease Index Prevention Effect % Powdery Mildew (powdery mildew [3]; [31]): 7.8%
Disease Index Prevention Effect % Powdery Mildew (powdery mildew [3]; [32]): 7.6%
Disease Index Prevention Effect % Powdery Mildew (powdery mildew [3]; [33]): 0%
Disease Index Prevention Effect % Powdery Mildew (powdery mildew [3]; [34]): 0%
Disease Index Prevention Effect % Powdery Mildew (powdery mildew [3]; [35]): 0%
Disease Index Prevention Effect % Powdery Mildew (powdery mildew [3]; [36]): 0%
Disease Index Prevention Effect % Powdery Mildew (powdery mildew [3]; [37]): 0%
Disease Index Prevention Effect % Powdery Mildew (powdery mildew [3]; [38]): 0%
Disease Index Prevention Effect % Powdery Mildew (powdery mildew [3]; [39]): 0%
Disease Index Prevention Effect % Rust (rust): 5.1% and 3.6% and 0%
Disease Index Prevention Effect % Powdery Mildew (powdery mildew [4]; [40]): 8.6%
Disease Index Prevention Effect % Powdery Mildew (powdery mildew [4]; [41]): 6.6%
Disease Index Prevention Effect % Powdery Mildew (powdery mildew [4]; [42]): 3.0%
Disease Index Prevention Effect % Powdery Mildew (powdery mildew [4]; [43]): 1.8%
Disease Index Prevention Effect % Powdery Mildew (powdery mildew [14]): 7.3% and 4.4% and 4.5% and 0%
Disease Index Prevention Effect % Leaf Blight (leaf blight [5]; [30]): 5.8%
Disease Index Prevention Effect % Leaf Blight (leaf blight [5]; [31]): 5.0%
Disease Index Prevention Effect % Leaf Blight (leaf blight [5]; [32]): 4.6%
Disease Index Prevention Effect % Leaf Blight (leaf blight [5]; [33]): 0%
Disease Index Prevention Effect % Leaf Blight (leaf blight [5]; [34]): 0%
Disease Index Prevention Effect % Leaf Blight (leaf blight [5]; [35]): 0%
Disease Index Prevention Effect % Leaf Blight (leaf blight [5]; [36]): 0%
Disease Index Prevention Effect % Leaf Blight (leaf blight [5]; [37]): 0%
Disease Index Prevention Effect % Leaf Blight (leaf blight [5]; [38]): 0%
Disease Index Prevention Effect % Leaf Blight (leaf blight [5]; [39]): 0%
Disease Index Prevention Effect % Leaf Blight (leaf blight [15]): 8.3% and 7.8% and 0%
Disease Index Prevention Effect % Head Blight (wheat scab [7]; [29]): 34.2%
Average Fungal Colony Diameter F.a (Fusarium asiaticum): 76.3 mm and 75.6 mm and 69.4 mm
inhibition at 50 µg/mL (Fusarium asiaticum; [28]): 7.8%
Rate of Inhibition on Relative Expression Level of Tri5 Gene (Tri5 gene): 66% and 84% and 87% and 90% and 59%
Disease Index Prevention Effect % Head Blight (wheat scab [10]; [40]): 34.2%
Disease Index Prevention Effect % Head Blight (wheat scab [10]; [41]): 10.2%
Disease Index Prevention Effect % Head Blight (wheat scab [10]; [42]): 9.4%
Disease Index Prevention Effect % Head Blight (wheat scab [10]; [43]): 7.4%
Thousand Kernel Weight [12]: 43.2 g and 42.8 g and 42.9 g and 42.6 g and 42.0 g and 39.6 g
